# Test results reported in US20170136008A1, “OXABICYCLOHEPTANES AND OXABICYCLOHEPTENES FOR THE TREATMENT OF OVARIAN CANCER” (priority 2014, published 2017).
# Assays:
# OVCAR-8 NT shRNA cells = assay: Cell viability (MTT) assay, OVCAR-8 NT shRNA; format: cell-based; settings: Homo sapiens; OVCAR-8 NT shRNA (control)
# Procedure: (§1) Cell survival was measured by the 3-(4,5-dimethylthiazol-2-yl)-2,5-diphenyltetrazolium bromide (MTT, Invitrogen) assay. Cells were seeded at a density of 5,000 cells per well in 96-well plates and incubated at 37° C. in humidified 5% CO2 for 24 hours. The 50% inhibitory concentration (IC50) values were defined as the drug concentrations required to reduce cellular proliferation to 50% of the untreated control well. […] All MTT assays were carried out according to the manufacturer's instructions (Molecular Probes, Eugen, Oreg.). Absorbance values were determined at […] on a Spectra Max 250 spectrophotometer (Molecular Devices, Sunnyvale, Calif.). All MTT assays were performed in triplicate. […] Cells were treated with both drugs for 72 h. Cell viability was analyzed via the MTT assay as described above. Experiments were performed in triplicate, and the data are presented as a percent mean±SD.
# To stably knockdown expression of PP2AC, a pLKO.1-puro plasmid-based […] shRNA targeting the sequence: […] (clone ID:TRCN0000002483, Sigma-Aldrich) was employed (PP2AC-shRNA). Additionally, a non-targeting shRNA plasmid (NT-shRNA) that targets no known human sequence was utilized as a control. […]
# [1] = tested on: HEK 293 human embryonic kidney cell lines overexpressing Pgp, MRP1, or ABCG2; assay: IC50 in ABC transporter-overexpressing HEK 293 lines; format: cell-based; settings: HEK 293 overexpressing Pgp
# Procedure: When HEK 293 human embryonic kidney cell lines overexpressing Pgp, MRP1, or ABCG2 (Robey, R. W. et al. 2005) were treated with equal concentration of LB100, the IC50s of the transfected lines were not different compared with parent (non-transporter-expressing) cells or in the presence of an inhibitor (tariquidar) (FIG. 5).
# SKOV-3 cells = assay: Cell-cycle analysis (FACS), SKOV-3; format: cell-based, human
# Procedure: (§2) For cell-cycle analysis, cells were washed with PBS and fixed overnight in ice-cold 70% ethanol and stored at 4° C. Cells were then centrifuged and resuspended in 100 U RNAse (Sigma-Aldrich), and incubated at 37° C. for 20 min. Propidiumidodide solution (Invitrogen, 500 μL, 50 μg/mL in DPBS) was added to each tube and incubated in the dark at 4° C. overnight. Flow cytometry analysis was performed with CellQuestPro and data analysis was completed with ModFit LT. All data is in triplicate and presented as a percent mean±SD.
# OVCAR-8 cells = assay: Cell-cycle analysis (FACS), OVCAR-8; format: cell-based, human; settings: LB100 2 μM
# Procedure: as §2
# [2] = tested on: SKOV-3/f-Luc intraperitoneal xenografts; assay: In vivo intraperitoneal ovarian cancer model; set-up: species or system mouse
# Procedure: Five- to seven-week-old female nude athymic mice (nu/nu) were obtained from NCI (Frederick, Md.), maintained in accredited animal facilities and used as stipulated by the U.S. Public Health Service Policy on Humane Care and Use of Laboratory Animals, in accordance with institutional reviews (http://oacu.odnih.gov). 10^6 SKOV-3/f-Luc cells were suspended in 100 μL PBS and injected into the intraperitoneal (i.p.) cavity. […] Following tumor inoculation, mice were dosed on days 4, 6, 8, 10, 12 and 14. Dose and treatment schedule were established based on the activity of each agent reported in previous studies (Wei, D. et al. 2013; Lu, J. et al. 2009; Mabuchi, S. et al. 2007). […] Tumor growth was measured twice a week via bioluminescence imaging (BLI) as previously described (Bakhsheshian, J. et al. 2013). D-Luciferin (150 mg/kg, 3 mg/100 μL PBS) was administered via I.P. injection. Relative intensity of the BLI signal for each mouse was calculated by dividing the total luminescence for each session by the total luminescence measured on day 1 of treatment. Mice were continuously observed until indicated euthanasia endpoints (e.g. significant weight loss, ascites). Toxicity of the treatment regimens was assessed by the degree of weight loss and the overall health status was continuously monitored by a veterinarian on staff. […] After 4 h, mice were euthanized and tumors were dissected from the intraperitoneal cavity, snap-frozen in liquid nitrogen, and lysed as described above.
# Tumors were established in nude athymic female mice via i.p. injection of SKOV-3 cells transfected with firefly luciferase. […] Following the final treatment, mice were observed until pre-determined health concerns necessitated euthanization. Dose and treatment schedules were determined from biologic profiles of each agent determined in previous studies (Wei, D. et al. 2013; Lu, J. et al. 2009; Mabuchi, S. et al. 2009) and disease progression was monitored by BLI.
# [3] = tested on: ovarian cancer cell lines; assay: MTT cytotoxicity assay, ovarian cancer cell line panel; format: cell-based; settings: Homo sapiens, SK-OV-3; ovarian lines other than SKOV-3
# Procedure: as §1
# SKOV-3 and OVCAR-8 cells have previously been described as p53 null and harboring an inactivating p53 mutation, respectively (Debernardis, D. et al. 1997). […] The […] carry a BRCA2 missense (n) and STOP (s) mutation, respectively (Langdon, S. P. et al. 1988).
structure (smiles),measurement,setting,value
CN1CCN(C(=O)C2C(C(=O)O)[C@H]3CC[C@@H]2O3)CC1 (stereo partly drawn) [LB100],IC50,OVCAR-8 NT shRNA cells,15.7 ± 1.3 µM
same,IC50s of transfected lines compared with parent cells or in the presence of tariquidar,[1],not different
same,G1 (%),"SKOV-3 cells; 24 h, LB100 5 μM",51.4 ± 1.5%
same,G2/M (%),"SKOV-3 cells; 24 h, LB100 5 μM",28.9 ± 1.2%
same,S (%),"SKOV-3 cells; 24 h, LB100 5 μM",19.7 ± 0.8%
same,G1 (%),"SKOV-3 cells; 48 h, LB100 2 μM",49.8 ± 0.5%
same,G2/M (%),"SKOV-3 cells; 48 h, LB100 2 μM",25.1±0.8%
same,S (%),"SKOV-3 cells; 48 h, LB100 2 μM",25.1 ± 0.3%
same,G1 (%),"SKOV-3 cells; 48 h, LB100 5 μM",47.2 ± 1.9%
same,G2/M (%),"SKOV-3 cells; 48 h, LB100 5 μM",25.1 ± 0.8%
same,S (%),"SKOV-3 cells; 48 h, LB100 5 μM",30.2 ± 3.1%
same,G1 (%),"SKOV-3 cells; 48 h, LB100 10 μM",36.8 ± 1.8%
same,G2/M (%),"SKOV-3 cells; 48 h, LB100 10 μM",32.1±1.6%
same,S (%),"SKOV-3 cells; 48 h, LB100 10 μM",31.1 ± 0.8%
same,G1 (%),"SKOV-3 cells; 48 h, LB100 15 μM",42.3 ± 1.6%
same,G2/M (%),"SKOV-3 cells; 48 h, LB100 15 μM",33.9±1.4%
same,S (%),"SKOV-3 cells; 48 h, LB100 15 μM",23.8 ± 0.2%
same,G1 (%),OVCAR-8 cells; 24 h,45.4 ± 1.5%
same,G2/M (%),OVCAR-8 cells; 24 h,17.6 ± 0.4%
same,S (%),OVCAR-8 cells; 24 h,37.0 ± 1.6%
same,G1 (%),OVCAR-8 cells; 48 h,55.3 ± 0.4%
same,G2/M (%),OVCAR-8 cells; 48 h,14.9 ± 1.5%
same,S (%),OVCAR-8 cells; 48 h,29.9 ± 1.1%
same,"day by which massive ascites developed, necessitating euthanasia",[2]; LB100 alone 1.5 mg/kg i.p.,≤ 25 days
same,tumor growth as assessed by BLI,[2]; LB100 alone 1.5 mg/kg i.p.,did not alter tumor growth
same,relative intensity of BLI signal (vs day 1 of treatment),"[2]; day 25, each drug 1.5 mg/kg i.p., 6 doses every other day, LB100 1 h before cisplatin in combination",12.4±6.7
same,IC50,[3],5.7 µM
